From PubChem BioAssay AID434951 (Broad Institute, 2010)
pEC50: −log10 of the molar value. Calls of active or inactive are those of the source.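 The calls were made as follows: active = a fitted half-maximal concentration EC50 for the rise in nuclear signal no higher than ten times the top dose tested; inconclusive = flat fit with activity between 30% and 70%, or unusable fit; inactive = EC50 beyond ten times the top dose.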

Molecular target: Hypoxia-inducible factor 1-alpha (Homo sapiens) (UniProt Q16665)
Sequence (Q16665 whole entry, looked up): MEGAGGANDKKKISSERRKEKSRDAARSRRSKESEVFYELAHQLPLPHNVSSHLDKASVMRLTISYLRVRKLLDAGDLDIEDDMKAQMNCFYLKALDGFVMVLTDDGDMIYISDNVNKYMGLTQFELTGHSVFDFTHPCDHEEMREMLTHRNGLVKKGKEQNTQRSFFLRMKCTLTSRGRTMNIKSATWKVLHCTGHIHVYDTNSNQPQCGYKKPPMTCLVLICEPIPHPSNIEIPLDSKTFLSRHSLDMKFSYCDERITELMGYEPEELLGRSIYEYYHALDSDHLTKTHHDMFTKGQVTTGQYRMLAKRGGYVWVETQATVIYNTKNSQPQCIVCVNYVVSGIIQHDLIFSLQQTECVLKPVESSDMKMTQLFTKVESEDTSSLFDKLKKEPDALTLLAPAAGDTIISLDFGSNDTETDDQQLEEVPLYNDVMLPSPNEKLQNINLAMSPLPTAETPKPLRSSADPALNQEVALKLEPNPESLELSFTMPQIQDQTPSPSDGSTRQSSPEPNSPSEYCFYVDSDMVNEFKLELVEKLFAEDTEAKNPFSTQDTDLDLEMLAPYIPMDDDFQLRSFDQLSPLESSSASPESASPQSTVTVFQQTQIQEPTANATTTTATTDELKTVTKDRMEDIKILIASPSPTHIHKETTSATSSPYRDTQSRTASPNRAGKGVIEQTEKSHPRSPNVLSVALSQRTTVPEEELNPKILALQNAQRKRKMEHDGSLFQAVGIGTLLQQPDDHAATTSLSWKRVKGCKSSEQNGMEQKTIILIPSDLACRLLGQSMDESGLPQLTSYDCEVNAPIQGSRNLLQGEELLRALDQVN
Assay: HIF pathway activation, GFP-HIF1alpha translocation – imaging, fluorescence, U2OS GFP-HIF1alpha, confirmation (AID 434951)
Conditions: U2OS GFP-HIF1alpha nuclear intensity, high-content imaging

CCOC(=O)CNC(=O)CSc1nnc(Cn2cnc3ccccc32)n1C
EC50: > 35 µM (inactive)

O=C(N/N=C(\c1ccccc1)c1ccccn1)c1ccccc1Cl
pEC50: 4.95

COc1ccc(N/N=C/c2c(C(=O)O)ccc3ccccc23)cc1
pEC50: 5.17

COc1ccc2cc3c(N)nn(C(=O)Cc4c[nH]c5ccccc45)c3nc2c1
EC50: > 35 µM (inactive)

CC(C)c1ccc(N(C(=O)c2snc(C(N)=O)c2N)C(C(=O)NC2CCCC2)c2ccncc2)cc1 (stereo unspecified)
pEC50: 4.67

CCCC(=O)NC(c1ccc(Cl)cc1)c1ccc2cccnc2c1O (stereo unspecified)
pEC50: 5.65

O=C(O)c1ccccc1OCCOc1ccccc1C(=O)O
EC50: > 35 µM (inactive)

COc1cccc(/C=N/Nc2nccnc2Cl)c1O
pEC50: 5.20

O=C(c1cc2ccccc2o1)N1CCN(Cc2ccc3c(c2)OCO3)CC1
EC50: > 35 µM (inactive)

c1cnc(N2CCN(c3ccc4ccccc4n3)CC2)nc1
EC50: > 35 µM (inactive)

Cc1cccc(-c2noc(CN(C)S(=O)(=O)c3cc(Cl)ccc3Cl)n2)c1
EC50: > 35 µM (inactive)

CC(=O)c1ccc(N2C(=NC(=O)COc3ccccc3)SC3CS(=O)(=O)CC32)cc1 (stereo unspecified)
EC50: > 35 µM (inactive)

CC(C)COc1cccc(C(=O)NNC(=O)C2COc3ccccc3O2)c1 (stereo unspecified)
EC50: > 35 µM (inactive)

C/C(=N\NC(=O)Cc1ccc(Br)cc1)c1cccnc1
EC50: > 35 µM (inactive)

Cn1c(NN=O)nc2ccccc21
pEC50: 5.02

Cc1ccc(-c2csc3nc(SCC(=O)N(C)C)n(Cc4ccccc4)c(=O)c23)cc1
pEC50: 5.28

COc1ccc2nc(C)cc(SCC(=O)N/N=C/c3ccc(O)cc3O)c2c1
pEC50: 5.06

CC(C)(C)NC(=O)COC(=O)c1ccc(Cl)nc1
EC50: > 35 µM (inactive)

O=C(N/N=C/c1c(O)ccc2ccccc12)c1[nH]ncc1Br
pEC50: 5.15

CCOc1nc(NCCN2CCOCC2)nc(Nc2ccc(C)cc2)n1
EC50: > 35 µM (inactive)

Oc1ccccc1N=Nc1ccccc1O
pEC50: 5.70

O=C(CSc1ncn[nH]1)NCCc1ccc(Cl)cc1Cl
EC50: > 35 µM (inactive)

O=C(CS(=O)(=O)c1ccccc1)Nc1ccc(N2CCOCC2)cc1
EC50: > 35 µM (inactive)

Cc1ccc(Nc2c(-c3ccccn3)nc3ccc(C)cn23)cc1
pEC50: 5.21

Cc1cc(OC(C)C(=O)NNC(=O)Nc2ccc(F)cc2F)cc(C)c1Cl (stereo unspecified)
EC50: > 35 µM (inactive)

COc1ccccc1-c1cc(C(F)(F)F)nc(S(=O)(=O)CCCC(=O)NCc2ccc(F)cc2)n1
pEC50: 5.02

Oc1ccc2ccccc2c1N=Nc1nccs1
pEC50: 5.24

Cn1c(N/N=C/c2cc3ccccc3nc2Cl)nc2ccccc21
pEC50: 4.74

Cc1cc(-c2nnnn2-c2cc(Cl)cc(Cl)c2)no1
EC50: > 35 µM (inactive)

Oc1c(CN2CCOCC2)cc(COCc2ccccc2)c2cccnc12
pEC50: 5.17

COc1cccc(/C=N/Nc2ncnc3scc(-c4ccccc4)c23)c1O
pEC50: 5.90

Cc1cc(C)nc(Sc2ncnc(N)c2[N+](=O)[O-])n1
pEC50: 4.69

CCOC(=O)C1CCCN(C(=O)c2ccc3nc(-c4ccccc4)c(-c4ccccc4)nc3c2)C1 (stereo unspecified)
EC50: > 35 µM (inactive)

CC(C(=O)N1CCOCC1)N1c2cccc3cccc(c23)S1(=O)=O (stereo unspecified)
EC50: > 35 µM (inactive)

O=C(/C=C/c1ccc2c(c1)OCO2)Nc1cccnc1
EC50: > 35 µM (inactive)

Cc1ccc2[nH]c(C(=O)N/N=C/c3ccccc3O)c(C)c2c1
pEC50: 5.15

COc1ccc(N2CCN(c3ccc(N4C(=O)CC(C)C4=O)cc3[N+](=O)[O-])CC2)cc1 (stereo unspecified)
EC50: > 35 µM (inactive)

COc1ccc(OC)c(NC2=NCCCS2)c1
EC50: > 35 µM (inactive)

Cc1ccc(C(=O)CSc2cc(C)[nH]c(=O)n2)cc1
EC50: > 35 µM (inactive)

O=C(NC1=NCCS1)c1cccc(NC(=O)c2ccco2)c1
EC50: > 35 µM (inactive)

O=C(NNC(=S)Nc1ccc(Cl)c(Cl)c1)c1ccccn1
pEC50: 5.17

O=C(NCc1ccco1)c1cc(-c2cccs2)on1
pEC50: 4.46

COC(=O)c1cn(C)c2ccc(S(=O)(=O)N3CCCCC3)cc2c1=O
EC50: > 35 µM (inactive)

COc1ccc(N/C=C\C(=O)c2ccc3c(c2)OCO3)cc1
EC50: > 35 µM (inactive)

N/C(=N\OC(=O)C(c1ccccc1)c1ccccc1)c1cccnc1
EC50: > 35 µM (inactive)

CC(=O)N1CCC(=NNC(=O)c2cc3ccccc3cc2O)CC1
EC50: > 35 µM (inactive)

CCN(CC)S(=O)(=O)c1ccc(N/N=C/c2cc(OC)ccc2O)nc1
pEC50: 5.37

C/C(=C\C(=O)OCC(=O)NCc1ccccc1)C(=O)OCC(=O)NCc1ccccc1
EC50: > 35 µM (inactive)

COc1ccc2[nH]c(C(=O)N/N=C/c3ccccc3OC)cc2c1
EC50: > 35 µM (inactive)

COc1ccc(C(CC(=O)NCc2ccccc2)Sc2n[nH]c(-c3ccccc3)n2)cc1 (stereo unspecified)
pEC50: 4.48

CN(C)c1nc(-c2ccccn2)nnc1-c1ccccc1
pEC50: 5.17

CCN(CC)CCC(=O)Nc1cccc2c1C(=O)c1ccccc1C2=O
EC50: > 35 µM (inactive)

O=C(O)c1cccc(-n2cccc2/C=C2/SC(=O)N(CC(=O)N3CCCC3)C2=O)c1
EC50: > 35 µM (inactive)

COc1ccc(N2CCN(C(=O)COc3ccc4c(C)c(C)c(=O)oc4c3C)CC2)cc1
EC50: > 35 µM (inactive)

Cc1nc(C(=O)Nc2ccc(Cl)cc2Cl)nn1-c1cc(OC(C)C)c(Cl)cc1Cl
EC50: > 35 µM (inactive)

Cc1cc(Nc2ccccc2)cc(=O)n1C
EC50: > 35 µM (inactive)

O=C(NCc1ccc(F)cc1)C1CCN(S(=O)(=O)N2CCOCC2)CC1
EC50: > 35 µM (inactive)

COc1ccc2nc(-c3cccc(N)c3)[nH]c2c1
EC50: > 35 µM (inactive)

CCOc1ccc(C(=O)NC(=S)Nc2cccc(NC(=O)c3ccco3)c2)cc1[N+](=O)[O-]
EC50: > 35 µM (inactive)

CC(=O)Nc1ccc2c(c1)CCCC2=O
EC50: > 35 µM (inactive)

CC(C)c1ccc2oc(=O)cc(CN3CCOCC3)c2c1
EC50: > 35 µM (inactive)

Cc1ccc(Nc2nc(CSc3nnc(-c4ccncc4)n3C)cs2)cc1
EC50: > 35 µM (inactive)

CC(C)COc1ccc(C(=O)Nc2ccc([N+](=O)[O-])cc2)cc1
EC50: > 35 µM (inactive)

O=C(Nc1ccc(Cl)cc1)NN1CC(=O)N(c2cccc(C(F)(F)F)c2)CC1=O
EC50: > 35 µM (inactive)

O/N=C1/C2C3CC4C5C3C1C5C1(OCCO1)C42 (stereo unspecified)
EC50: > 35 µM (inactive)

COc1ccc2cc3cc(C(=O)N4CCN(c5ccccn5)CC4)oc3nc2c1
EC50: > 35 µM (inactive)

COc1ccccc1-c1cc(C(F)(F)F)nc(S(C)(=O)=O)n1
pEC50: 4.74

COc1ccc(CCNC(=O)CC(NC(=O)c2ccccc2Cl)c2ccccc2)cc1 (stereo unspecified)
EC50: > 35 µM (inactive)

COc1cccc(/C=N/NC(=O)c2ccc(-c3ccccc3)cc2)c1O
pEC50: 4.52

CCN(CC)S(=O)(=O)c1cccc(C(=O)N/N=C(\C)c2ccc(O)cc2O)c1
pEC50: 5.67

O=C(Cn1ncc2c3ccccc3n(Cc3ccccc3F)c2c1=O)NCCN1CCOCC1
EC50: > 35 µM (inactive)

COc1ccccc1C(=O)Nc1ccccc1SC(=O)c1ccccc1OC
EC50: > 35 µM (inactive)

COc1cccc(OCc2cc(C(=O)N3CCN(c4ccccc4OC)CC3)no2)c1
EC50: > 35 µM (inactive)

Cc1ccc(N2CC(=O)Nc3c(sc4nc(C)cc(C)c34)C2=O)cc1
EC50: > 35 µM (inactive)

O=C(O)c1ccc2cccc(O)c2n1
EC50: > 35 µM (inactive)

CC1=NN2C(=N)/C(=C\c3cc(C)n(Cc4ccccc4)c3C)C(=O)N=C2S1
EC50: > 35 µM (inactive)

CCOC(=O)C(=Cc1ccc(OCc2ccc([N+](=O)[O-])cc2)c(OC)c1)C(=O)OCC
pEC50: 5.14

Cn1c(SCC(=O)c2ccccc2)nnc1-c1ccco1
EC50: > 35 µM (inactive)

CC(=O)c1cccc(N(C(=O)c2ccccn2)C(C(=O)NC2CCCCC2)c2ccccc2)c1 (stereo unspecified)
EC50: > 35 µM (inactive)

CCCOC(=O)NC1C(NC(=O)OCCC)N(C)C(=O)N1C (stereo unspecified)
EC50: > 35 µM (inactive)

Cc1ccc(CSc2nnc(CCCCCNC(=O)OC(C)(C)C)o2)cc1
EC50: > 35 µM (inactive)

CC1CN(S(=O)(=O)c2cccc(C(=O)N(CCc3ccccc3)Cc3ccccc3)c2)CC(C)O1 (stereo unspecified)
EC50: > 35 µM (inactive)

O=C(CSC1=NNC(c2ccccn2)S1)Nc1ccc(C(F)(F)F)cc1 (stereo unspecified)
pEC50: 4.98

C[C@@H]1O[C@@H](OC[C@H]2O[C@@H](Oc3c(-c4ccc(O)cc4)oc4cc(O)cc(O)c4c3=O)[C@H](O)[C@@H](O)[C@@H]2O)[C@H](O)[C@H](O)[C@H]1O
EC50: > 35 µM (inactive)

COc1ccccc1-c1cc(C(F)(F)F)nc(S(=O)(=O)CCCC(=O)N2CCOCC2)n1
EC50: > 35 µM (inactive)

CC/C(=N\N1CCCCCC1)c1c(O)n(-c2ccc(C)cc2)c(=O)[nH]c1=O
EC50: > 35 µM (inactive)

COc1cc(NC(=O)CN2C(=O)c3ccccc3Sc3ccc(C(=O)N4CCOCC4)cc32)cc(OC)c1OC
EC50: > 35 µM (inactive)

C=CCc1c(C)nc2c(-c3ccccc3)cnn2c1N1CCOCC1
EC50: > 35 µM (inactive)

CCCNC(=O)c1cc2nc(-c3ccccc3)cc(C(F)(F)F)n2n1
EC50: > 35 µM (inactive)

CCN(CC)CCCNC(=O)C1c2ccccc2C(=O)N(C)C1c1ccc(OC)cc1 (stereo unspecified)
EC50: > 35 µM (inactive)

COc1ccc(C/C(C)=N/NS(=O)(=O)c2ccc(Br)cc2)cc1
EC50: > 35 µM (inactive)

CCC(Sc1nc(C)cc(=O)[nH]1)C(=O)Nc1sc2c(c1C#N)CCCC2 (stereo unspecified)
EC50: > 35 µM (inactive)

C=CCN1C(=O)c2ccccc2Sc2ccc(C(=O)N3CCN(C)CC3)cc21
EC50: > 35 µM (inactive)

CCC(=O)NC(c1ccccc1OC)c1ccc2cccnc2c1O (stereo unspecified)
pEC50: 5.21

CCCn1c(=NC(=O)c2c(-c3c(F)cccc3Cl)noc2C)c(C(=O)OCC)cc2c(=O)n3ccccc3nc21
pEC50: 4.65

CCOc1ccc(NC(=O)C2CCN(S(=O)(=O)c3ccc4c(c3)N(C(C)=O)CCO4)CC2)cc1
EC50: > 35 µM (inactive)

CCOC(=O)c1sc(=S)n(-c2ccccc2)c1C
EC50: > 35 µM (inactive)

O=C(N/N=C/c1cc(Cl)cc(Cl)c1O)c1ccncc1
EC50: > 35 µM (inactive)

O=C(C[n+]1ccn(CCCNP2(=O)C=C(c3ccccc3)OC(c3ccccc3)=C2)c1)c1cccs1
EC50: > 35 µM (inactive)

CCOc1ccccc1NC(=O)CSc1ncnc2c1oc1ccccc12
EC50: > 35 µM (inactive)

O=C(COC(=O)c1cccc(S(=O)(=O)N2CCOCC2)c1)Nc1ncc(C(F)(F)F)cc1Cl
EC50: > 35 µM (inactive)
